In US8343956B2, “Process for making a crystalline zilpaterol salt” (Intervet International B.V., priority 2008, dated 2013):
Several values for one entry are separate records, joined by “and”; a condition that tells them apart may be missing. Equal entries are not always repeated.

Test: Particle Size Distribution of zilpaterol hydrochloride batches
Format: physicochemical
Conditions: batches from crystallization process of Examples 4
Text: As used herein, particle size refers to a number particle size as measured by conventional particle size measuring techniques well known to those skilled in the art, such as laser scattering, sedimentation field flow fractionation, photon correlation spectroscopy, or disk centrifugation.
The particle size measurement indicated as Particle Size Distribution (relative amounts of particles present, sorted according to size) can be e.g. performed with a Malvern Mastersizer 2000 with the Hydro 2000G measuring cell, or with a Horiba LA-910 laser scattering particle size distribution analyzer.

With `CC(C)N[C@@H]1CCn2c(=O)[nH]c3cccc(c32)[C@H]1O` (racemic) [Example 3, trans-(±)-4,5,6,7-tetrahydro-7-hydroxy-6-[(1-methylethyl)amino]-imidazo[4,5,1-jk][1]benzazepin-2(1H)-one] the “Particle size Distribution <=15 μm” value (relative amount of crystal particles with size <=15 μm) was 2.9% and 1.6% and 3.0%, the “Particle size Distribution >=200 μm” value (relative amount of crystal particles with size >=200 μm) was 7.8% and 14.3% and 11.0% and the “Particle size Distribution >=250 μm” value (relative amount of crystal particles with size >=250 μm) was 0.3% and 1.7% and 0.8%. The “Particle size Distribution >=300 μm” value (relative amount of crystal particles with size >=300 μm) was 0% and 0.2%.
